The EC50 is the concentration needed to bring the measured effect to its halfway point.

Values after ≈ are worked out from the molar mass of the structure shown.

The values below come from patent US10233184B2, “7-substituted sulfonimidoylpurinone compounds and derivatives for the treatment and prophylaxis of virus infection” (Hoffmann-La Roche Inc., priority 2016, dated 2019).

One data set is described as follows: LYSA solubility study. In kind it is physicochemical. Particulars: for LYSA of Prodrugs: aqueous solubility, 0.05M phosphate buffer pH 6.5; for solubility thermodynamic: phosphate buffer, pH 6.5, aqueous buffer, thermodynamic from solid, 0.05M phosphate buffer pH 6.5, read-out: LYSA of Prodrugs. The method, then: LYSA study is used to determine the aqueous solubility of tested compounds. Samples were prepared in duplicate from 10 mM DMSO stock solution. After evaporation of DMSO with a centrifugal vacuum evaporator, the compounds were dissolved in 0.05M phosphate buffer (pH 6.5), stirred for one hour and shaken for two hours. After one night, the solutions were filtered using a microtiter filter plate. Then the filtrate and its 1/10 dilution were analyzed by HPLC-UV. […] The results were in μg/mL. In case the percentage of sample measured in solution after evaporation divided by the calculated maximum of sample amount was bigger than 80%, the solubility was reported as bigger than this value.

The target of the next data set is T1, human TLR7 (Homo sapiens, UniProt Q9NYK1).
T1 sequence (Q9NYK1 27-1049): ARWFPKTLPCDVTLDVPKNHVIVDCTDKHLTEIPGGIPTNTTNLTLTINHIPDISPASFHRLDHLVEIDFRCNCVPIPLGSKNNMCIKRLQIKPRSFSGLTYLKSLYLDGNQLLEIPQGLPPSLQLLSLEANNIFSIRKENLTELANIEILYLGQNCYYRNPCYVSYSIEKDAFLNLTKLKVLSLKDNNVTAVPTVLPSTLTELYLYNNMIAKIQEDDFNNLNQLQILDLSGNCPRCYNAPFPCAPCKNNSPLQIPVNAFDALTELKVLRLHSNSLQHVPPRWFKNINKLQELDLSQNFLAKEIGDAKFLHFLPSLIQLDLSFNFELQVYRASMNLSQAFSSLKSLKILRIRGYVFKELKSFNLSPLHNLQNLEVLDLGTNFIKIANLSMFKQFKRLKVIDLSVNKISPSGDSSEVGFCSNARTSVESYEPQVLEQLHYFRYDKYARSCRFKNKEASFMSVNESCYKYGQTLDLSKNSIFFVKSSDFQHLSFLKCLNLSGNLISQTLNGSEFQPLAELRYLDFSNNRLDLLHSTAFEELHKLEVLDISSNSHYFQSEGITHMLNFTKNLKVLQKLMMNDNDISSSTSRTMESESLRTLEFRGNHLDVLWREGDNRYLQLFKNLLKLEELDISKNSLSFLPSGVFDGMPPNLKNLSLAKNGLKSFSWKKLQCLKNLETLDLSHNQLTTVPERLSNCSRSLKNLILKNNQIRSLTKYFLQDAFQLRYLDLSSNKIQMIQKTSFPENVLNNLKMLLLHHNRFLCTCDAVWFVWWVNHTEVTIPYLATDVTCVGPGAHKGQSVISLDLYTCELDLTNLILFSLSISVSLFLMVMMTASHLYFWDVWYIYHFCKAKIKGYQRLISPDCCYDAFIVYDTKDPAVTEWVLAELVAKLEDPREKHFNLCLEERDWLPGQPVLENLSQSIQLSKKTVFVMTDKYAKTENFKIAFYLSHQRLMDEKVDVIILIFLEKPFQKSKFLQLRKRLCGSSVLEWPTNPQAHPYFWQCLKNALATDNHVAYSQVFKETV
Description: HEK293-Blue-hTLR-7 cells assay (SEAP reporter). Format: cell-based. The conditions noted are these: for EC50: HEK293-Blue-hTLR-7 cells, SEAP reporter, 20 hrs, prodrug, read-out: HEK293-hTLR-7 EC50 (Prodrug); for Ratio (EC50(prodrug)/EC50(active form)): EC50 of prodrug over EC50 of corresponding active form. The source says:
HEK293-Blue-hTLR-7 Cells Assay:
A stable HEK293-Blue-hTLR-7 cell line was purchased from InvivoGen (Cat.#: hkb-htlr7, San Diego, Calif., USA). These cells were designed for studying the stimulation of human TLR7 by monitoring the activation of NF-κB. A SEAP (secreted embryonic alkaline phosphatase) reporter gene was placed under the control of the IFN-β minimal promoter fused to five NF-κB and AP-1-binding sites. The SEAP was induced by activating NF-κB and AP-1 via stimulating HEK-Blue hTLR7 cells with TLR7 ligands. Therefore the reporter expression was regulated by the NF-κB promoter upon stimulation of human TLR7 for 20 hrs. The cell culture supernatant SEAP reporter activity was determined using QUANTI-Blue™ kit (Cat.#: rep-qbl, Invivogen, San Diego, Calif., USA) at a wavelength of 640 nm, a detection medium that turns purple or blue in the presence of alkaline phosphatase.
HEK293-Blue-hTLR7 cells were incubated at a density of 250,000˜450,000 cells/mL in a volume of 180 μL in a 96-well plate in Dulbecco's Modified Eagle's medium (DMEM) containing 4.5 g/L glucose, 50 U/mL penicillin, […], […], 2 mM L-glutamine, 10% (V/V) heat-inactivated fetal bovine serum for 24 hrs. Then the HEK293-Blue-hTLR-7 cells were incubated with addition of 20 μL test compound in a serial dilution in the presence of final DMSO at 1% and perform incubation under 37° C. in a CO2 incubator for 20 hrs. Then 20 μL of the supernatant from each well was incubated with 180 μL Quanti-blue substrate solution at 37° C. for 2 hrs and the absorbance was read at 620˜655 nm using a spectrophotometer. The signalling pathway that TLR7 activation leads to downstream NF-κB activation has been widely accepted, and therefore similar reporter assay was also widely used for evaluating TLR7 agonist (Tsuneyasu Kaisho and Takashi Tanaka, Trends in Immunology, Volume 29, Issue 7, July 2008, […]; Hiroaki Hemmi et al, Nature Immunology 3, 196-200 (2002)).
The Compounds and Examples of the present invention were tested in HEK293-hTLR-7 assay for their TLR7 agonism activity as described herein and results are listed in Table 1. […] The calculated ratio of EC50(prodrug)/EC50(active form) were within the range from 32 to about 7600.

For the compound `CCN(C)C(=O)n1c(=O)n(Cc2ccc(Br)cc2)c2nc(S(=N)(=O)CC)nc(N)c21` (single isomer, unassigned) [Example 48-B], in “LYSA solubility study”, the “LYSA of Prodrugs” value was found to be 275 µg/mL. The EC50 on human TLR7 came out at 20.8 µM.

As to `CCN(C)C(=O)n1c(=O)n(Cc2ccc(Cl)cc2)c2nc([S@@](=N)(=O)CC)nc(N)c21` (stereo in doubt) [Example 42-B, 6-Amino-9-[(4-chlorophenyl)methyl]-N-ethyl-2-[S(R)-ethylsulfonimidoyl]-N-methyl-8-oxo-purine-7-carboxamide], the “LYSA of Prodrugs” value in the data set “LYSA solubility study” is 335 µg/mL. On human TLR7, the “Ratio (EC50(prodrug)/EC50(active form))” value is 578.8 and the EC50 was determined as 49.2 µM.

Turning to `CCCN(C)C(=O)n1c(=O)n(Cc2ccccc2)c2nc(S(=N)(=O)CCC)nc(N)c21` (stereo not shown) [Example 1, 6-Amino-9-benzyl-N-methyl-8-oxo-N-propyl-2-(propylsulfonimidoyl)purine-7-carboxamide], the solubility thermodynamic in “LYSA solubility study” was found to be 290 µg/mL (≈ 651 µM). For the same compound, on human TLR7, the “Ratio (EC50(prodrug)/EC50(active form))” value is recorded as 775.4 and the EC50 was determined as 50.4 µM.

Turning to `CCCS(=N)(=O)c1nc(N)c2c(n1)n(Cc1ccccc1)c(=O)n2C(=O)N(C)CCOC` (stereo not shown) [Example 2, 6-Amino-9-benzyl-N-(2-methoxyethyl)-N-methyl-8-oxo-2-(propylsulfonimidoyl)purine-7-carboxamide], the solubility thermodynamic in the data set “LYSA solubility study” amounted to 615 µg/mL (≈ 1330 µM). At human TLR7, the “Ratio (EC50(prodrug)/EC50(active form))” value amounted to 372.1 and the EC50 amounted to 32 µM.

For the compound `CCCN(CC)C(=O)n1c(=O)n(Cc2ccccc2)c2nc(S(=N)(=O)CCC)nc(N)c21` (stereo not shown) [Example 3, 6-Amino-9-benzyl-N-ethyl-8-oxo-N-propyl-2-(propylsulfonimidoyl)purine-7-carboxamide], in the data set “LYSA solubility study”, the solubility thermodynamic was found to be 240 µg/mL (≈ 522 µM). Also, the EC50 at human TLR7 stood at 15.1 µM.

With `CCCS(=N)(=O)c1nc(N)c2c(n1)n(Cc1ccccc1)c(=O)n2C(=O)N1CCC(N2CCCCC2)CC1` (stereo not shown) [Example 4, 6-Amino-9-benzyl-7-[4-(1-piperidyl)piperidine-1-carbonyl]-2-(propylsulfonimidoyl)purin-8-one], the solubility thermodynamic in the data set “LYSA solubility study” was 695 µg/mL (≈ 1290 µM). For the same compound, at human TLR7, the “Ratio (EC50(prodrug)/EC50(active form))” value is given as 353.8 and the EC50 stood at 23 µM.

Take `CCCS(=N)(=O)c1nc(N)c2c(n1)n(Cc1ccccc1)c(=O)n2C(=O)N(CC)CCOC` (stereo not shown) [Example 5, 6-Amino-9-benzyl-N-ethyl-N-(2-methoxyethyl)-8-oxo-2-(propylsulfonimidoyl)purine-7-carboxamide]: the solubility thermodynamic in the data set “LYSA solubility study” is above 595 µg/mL. Further, on human TLR7, the “Ratio (EC50(prodrug)/EC50(active form))” value worked out at 630.8 and the EC50 amounted to 41 µM.

Regarding `CCCCN(CC)C(=O)n1c(=O)n(Cc2ccccc2)c2nc(S(=N)(=O)CCC)nc(N)c21` (stereo not shown) [Example 6, 6-Amino-9-benzyl-N-butyl-N-ethyl-8-oxo-2-(propylsulfonimidoyl)purine-7-carboxamide], the solubility thermodynamic in the data set “LYSA solubility study” worked out at 140 µg/mL (≈ 296 µM). Moreover, on human TLR7, the “Ratio (EC50(prodrug)/EC50(active form))” value is 1266.2 and the EC50 worked out at 82.3 µM.

As to `CCCN(CCOC)C(=O)n1c(=O)n(Cc2ccccc2)c2nc(S(=N)(=O)CCC)nc(N)c21` (stereo not shown) [Example 7, 6-Amino-9-benzyl-N-(2-methoxyethyl)-8-oxo-N-propyl-2-(propylsulfonimidoyl)purine-7-carboxamide], in the data set “LYSA solubility study”, the solubility thermodynamic came out at 615 µg/mL (≈ 1260 µM). Moreover, at human TLR7, the “Ratio (EC50(prodrug)/EC50(active form))” value is given as 306.2 and the EC50 was 19.9 µM.

Consider `CCCS(=N)(=O)c1nc(N)c2c(n1)n(Cc1ccccc1)c(=O)n2C(=O)N(CCOC)CCOC` (stereo not shown) [Example 8, 6-Amino-9-benzyl-N,N-bis(2-methoxyethyl)-8-oxo-2-(propylsulfonimidoyl)purine-7-carboxamide], for which, in “LYSA solubility study”, the solubility thermodynamic amounted to 620 µg/mL (≈ 1230 µM). For the same compound, at human TLR7, the “Ratio (EC50(prodrug)/EC50(active form))” value came to 32.3 and the half-maximal effective concentration (EC50) turned out to be 2.1 µM.

With `CCCS(=N)(=O)c1nc(N)c2c(n1)n(Cc1ccccc1)c(=O)n2C(=O)N1CCC1` (stereo not shown) [Example 9, 6-Amino-7-(azetidine-1-carbonyl)-9-benzyl-2-(propylsulfonimidoyl)purin-8-one], in “LYSA solubility study”, the solubility thermodynamic is above 520 µg/mL. Further, on human TLR7, the “Ratio (EC50(prodrug)/EC50(active form))” value worked out at 295.4 and the EC50 stood at 19.2 µM.

Take `CCCS(=N)(=O)c1nc(N)c2c(n1)n(Cc1ccccc1)c(=O)n2C(=O)N(C)C(C)C` (stereo not shown) [Example 10, 6-Amino-9-benzyl-N-isopropyl-N-methyl-8-oxo-2-(propylsulfonimidoyl)purine-7-carboxamide]: in the data set “LYSA solubility study”, the solubility thermodynamic is 120 µg/mL (≈ 269 µM). Besides, at human TLR7, the “Ratio (EC50(prodrug)/EC50(active form))” value is reported as 1053.8 and the EC50 was found to be 68.5 µM.

For the compound `CCCS(=N)(=O)c1nc(N)c2c(n1)n(Cc1ccccc1)c(=O)n2C(=O)N1CCN(C)CC1` (stereo not shown) [Example 11, 6-Amino-9-benzyl-7-(4-methylpiperazine-1-carbonyl)-2-(propylsulfonimidoyl)purin-8-one], the solubility thermodynamic in “LYSA solubility study” is above 618 µg/mL. Further, on human TLR7, the “Ratio (EC50(prodrug)/EC50(active form))” value is recorded as 86.2 and the EC50 worked out at 5.6 µM.

In the case of `CCCS(=N)(=O)c1nc(N)c2c(n1)n(Cc1ccccc1)c(=O)n2C(=O)N(C)CCCOC` (stereo not shown) [Example 12, 6-Amino-9-benzyl-N-(3-methoxypropyl)-N-methyl-8-oxo-2-(propylsulfonimidoyl)purine-7-carboxamide], the solubility thermodynamic in the data set “LYSA solubility study” worked out at 120 µg/mL (≈ 252 µM). On human TLR7, the “Ratio (EC50(prodrug)/EC50(active form))” value is reported as 675.4 and the EC50 turned out to be 43.9 µM.

Take `CCCS(=N)(=O)c1nc(N)c2c(n1)n(Cc1ccccc1)c(=O)n2C(=O)N(C)CC(C)C` (stereo not shown) [Example 13, 6-Amino-9-benzyl-N-isobutyl-N-methyl-8-oxo-2-(propylsulfonimidoyl)purine-7-carboxamide]: in the data set “LYSA solubility study”, the solubility thermodynamic was determined as 155 µg/mL (≈ 337 µM). Also, at human TLR7, the “Ratio (EC50(prodrug)/EC50(active form))” value is 1030.8 and the EC50 came to 67 µM.

For the compound `CCCS(=N)(=O)c1nc(N)c2c(n1)n(Cc1ccccc1)c(=O)n2C(=O)N(C)CC(=O)OCC` (stereo not shown) [Example 14, Ethyl 2-[[6-amino-9-benzyl-8-oxo-2-(propylsulfonimidoyl)purine-7-carbonyl]-methyl-amino]acetate], in “LYSA solubility study”, the solubility thermodynamic was determined as 225 µg/mL (≈ 460 µM). Besides, on human TLR7, the “Ratio (EC50(prodrug)/EC50(active form))” value was 36.9 and the EC50 turned out to be 2.4 µM.

Regarding `CCCS(=N)(=O)c1nc(N)c2c(n1)n(Cc1ccccc1)c(=O)n2C(=O)N(C)CCC(=O)OCC` (stereo not shown) [Example 15, Ethyl 3-[[6-amino-9-benzyl-8-oxo-2-(propylsulfonimidoyl)purine-7-carbonyl]-methyl-amino]propanoate], the solubility thermodynamic in the data set “LYSA solubility study” was found to be 405 µg/mL (≈ 804 µM). Further, on human TLR7, the “Ratio (EC50(prodrug)/EC50(active form))” value amounted to 7600 and the EC50 is 494 µM.
